We go through 10 compounds from article PMC4869338 (Malaria Journal, 2016).

In data set [1] the target is T1, Recombinant human CYP 2D6 (Homo sapiens, UniProt P10635). Nature of the data set: biochemical.
Protocol: The samples were centrifuged at 15,700×g at 4 °C for 10 min, supernatants collected and analysed by liquid chromatography/tandem mass spectrometry (LC–MS/MS).
Analyte peaks were detected and quantified using a TSQ Quantum triple quadrupole mass spectrometer (Thermo Fisher Scientific, Waltham, MA, USA). Mass spectrometry conditions were optimized for each analyte (see Additional file 1 for masses and ion transitions). […] Samples were analysed with electrospray ionization in positive ion mode (source temperature 350 °C) by selected reaction monitoring at a collision pressure of 1.0 mTorr. Analyte peaks were detected and quantified using the Xcalibur software package.
For data set [2] the following is noted: cited from earlier work.
The test system of another data set is CYP2D6. Conditions: cited from earlier work.
For data set [3] the following is noted: humans; cited from earlier work.
The next data set has as its system CYP3A4. Conditions: cited from earlier work.
For a further data set, the system named is CYP2C9. Also noted: method as in PMID 18691982. As to conditions: cited from earlier work.
A further data set has as its system CYP 2D6. As to conditions: in vivo; cited from earlier work.
A further data set deals with CYP2C19. Conditions: cited from earlier work.
Data set [4] relates to Plasmodium berghei sporozoites.
Description: Drug suspensions were made and transferred to a 20-ml bottle, drawn into a 1-ml syringe, and delivered via oral feeder (18 gauge) to the designated recipient. […] Both liver and blood stages of P. berghei infections were monitored using the in vivo imaging system (IVIS) and flow cytometry as described in [29].
For data set [5] the following is noted: cited from earlier work. This is another data set of the same source.
The next data set concerns CYP1A2. Also noted: method as in PMID 18691982. As to conditions: cited from earlier work.
Data set [6] in a line: Mouse oral pharmacokinetics of primaquine and 5,6-orthoquinone with and without fluoxetine. Conditions: mice; oral primaquine 20 mg/kg; fluoxetine 4 mg/kg/day for 3 days.
Protocol: Analyte peaks were detected and quantified using a TSQ Quantum triple quadrupole mass spectrometer (Thermo Fisher Scientific, Waltham, MA, USA). […] Chromatographic separations were achieved using a Waters XTerra MS C18 (2.1 × 50 mm, 3.5 μm) column (Milford, MA, USA) with a Phenomenex (4 × 20 mm, 3.5 µm) guard column (Torrance, CA, USA) at a flow rate of 0.35 ml/min. A 7-min linear gradient from 5 to 95 % acetonitrile (0.1 % formic acid) was utilized. Samples were analysed with electrospray ionization in positive ion mode (source temperature 350 °C) by selected reaction monitoring at a collision pressure of 1.0 mTorr. Analyte peaks were detected and quantified using the Xcalibur software package.
Briefly, male, 9–12-weeks old, wild-type, C57BL/6 mice (Taconic Biosciences, Germantown, NY, USA) were used for pharmacokinetic evaluations. On arrival, animals were acclimated for 7 days in quarantine. The animals were housed in a cage maintained at a temperature range of 18–26 °C, 34–68 % relative humidity and a 12-h light/dark cycle. Food and water were provided ad libitum during quarantine and throughout the study. The animals were fed a standard rodent maintenance diet.
Pharmacokinetic studies were performed using oral administration. […] For each timepoint, animals were euthanized and plasma and liver samples collected. […] Supernatant was collected and analysed by LC–MS/MS analyses.
Data set [7] has as its system primary human hepatocytes. Conditions: 240-min incubation; previously reported; cited from earlier work.
Data set [8] has as its target T1, Recombinant human CYP 2D6. Conditions: sixty-minute incubation; previously reported; cited from earlier work.
Data set [9] deals with primary human hepatocytes. Nature of the data set: Primaquine metabolism in pooled primary human hepatocytes pre-treated with antidepressants. Format: in vitro ADME. Conditions: antidepressant 10 μM pre-treatment 15 min; primaquine 1 μM; 4-h incubation. The procedure:
Cryopreserved, pooled, human, primary hepatocytes were flash thawed in a 37 °C bath for 1 min. One vial of the thawed hepatocytes (5 million cells/vial) was added to 40 ml of pre-warmed thawing buffer, mixed thoroughly by gentle pipetting, and centrifuged at 72×g for 6 min. The supernatant was then aspirated and the pellet resuspended in hepatocyte incubation buffer (InVitroGRO HI media, BioreclamationIVT, Baltimore, MD, USA). The hepatocytes were then seeded onto 12-well culture plates, approximately 7 × 10^5 hepatocytes/ml per well, and incubated in a humidified 5 % CO2/95 % air incubator for 30 min prior to the addition of compounds.
All reactions were stopped by adding an equal volume of acetonitrile. […] The supernatant was collected and 200 μl of sample was loaded on to a 96-well LC–MS/MS plate for analysis. Samples were analysed immediately after sample collection.

Values joined by “and” are separate entries in the source; they are usually repeats but may differ in a detail not shown here. Equal entries are not always repeated. “Also recorded” adds a separate entry of the source. Where two headings read alike, the source gives them in different places. Where only a bound is given, the exact number is not on record here.

T1 sequence (P10635 whole entry): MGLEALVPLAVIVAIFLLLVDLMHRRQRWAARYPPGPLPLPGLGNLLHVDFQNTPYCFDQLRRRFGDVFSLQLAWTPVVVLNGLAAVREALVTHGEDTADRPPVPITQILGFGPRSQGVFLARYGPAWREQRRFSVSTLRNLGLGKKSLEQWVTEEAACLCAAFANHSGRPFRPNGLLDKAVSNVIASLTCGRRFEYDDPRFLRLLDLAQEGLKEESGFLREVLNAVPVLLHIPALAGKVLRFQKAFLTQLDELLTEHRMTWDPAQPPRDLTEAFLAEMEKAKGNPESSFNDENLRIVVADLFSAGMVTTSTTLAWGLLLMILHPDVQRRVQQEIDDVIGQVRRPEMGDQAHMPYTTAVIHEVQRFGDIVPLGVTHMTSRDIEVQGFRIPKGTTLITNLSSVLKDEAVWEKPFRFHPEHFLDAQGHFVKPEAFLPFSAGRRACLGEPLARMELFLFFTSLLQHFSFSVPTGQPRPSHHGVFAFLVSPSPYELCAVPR

On to `CN(C)CCCC1(c2ccc(F)cc2)OCc2cc(C#N)ccc21` (stereo not drawn) [citalopram], for which the IC50 in data set [1] worked out at 9.28 µM. For the same compound, the “Enzymes involved in biotransformation” value in data set [2] is “CYP2C19, CYP2D6, and CYP3A4”. Besides, the “Enzymes inhibited by antidepressant: CYP2D6” value (from here on “Enzymes inhibited … CYP2D6”) with CYP2D6 is reported as “CYP2D6 (weak)”.

`CCN(CC)CCCC(C)Nc1ccnc2cc(Cl)ccc12` (stereo not drawn) [chloroquine]: in data set [3], the “primaquine exposure on co-administration” value is on record as “significantly higher primaquine exposure”.

For `CN(C)CCC[C@@]1(c2ccc(F)cc2)OCc2cc(C#N)ccc21` [escitalopram], the IC50 in data set [1] was 7.35 µM. The “Enzymes involved in biotransformation” value in data set [2] was “CYP2C19, CYP2D6, and CYP3A4”. Further, in the data set with CYP2D6, the “Enzymes inhibited … CYP2D6” value is listed as “CYP2D6 (weak)”.

With `CN(C)CC(c1ccc(O)cc1)C1(O)CCCCC1` (stereo not drawn) [desvenlafaxine], the IC50 in data set [1] is ~94 µM and 94.3 µM. In addition, the “Enzymes inhibited by antidepressant: CYP3A4” value (“Enzymes inhibited … CYP3A4” for short) in the data set on CYP3A4 was “CYP3A4 (weak)”.

Turning to `CN[C@H]1CC[C@@H](c2ccc(Cl)c(Cl)c2)c2ccccc21` [sertraline], in data set [1], the IC50 was 4.35 µM. In the data set on CYP2C9, the “Enzymes inhibited by antidepressant: CYP2C9” value (“Enzymes inhibited … CYP2C9” for short) was “CYP2D6 (weak to moderate), CYP1A2 (weak), CYP2C9 (weak), CYP2C19 (weak), CYP3A4 (weak)”. In [2], the “Enzymes involved in biotransformation” value is “CYP2C9, CYP2C19, CYP2D6, and CYP3A4”.

In the case of `CNCCC(Oc1ccc(C(F)(F)F)cc1)c1ccccc1` (stereo not drawn) [fluoxetine], the “change of CYP 2D6 phenotype of human subjects” value in the data set with CYP 2D6 is reported as “from extensive to poor metabolizers”. Moreover, the “Enzymes inhibited … CYP2C9” value in the data set on CYP2C9 is “moderate”. The “Enzymes inhibited by antidepressant: CYP2C19” value in the data set on CYP2C19 is “CYP2D6 (strong), CYP2C9 (moderate), CYP2C19, (weak to moderate), CYP3A4 (weak to moderate), CYP1A2 (weak)”. In addition, the “effect of fluoxetine co-administration on primaquine anti-malarial efficacy” value in data set [4] (fluoxetine 4 mg/kg/day for 5 days with primaquine 20 mg/kg/day for 3 days) was “reduced primaquine anti-malarial efficacy; also recorded: negatively impacted primaquine efficacy”. Also, the “Enzymes involved in biotransformation” value in [2] was “CYP2D6, CYP2C9, CYP2C19, and CYP3A4”. For the same compound, the elimination half-life result in data set [5] is on record as “long”. In addition, the “Enzymes inhibited … CYP2D6” value in the data set on CYP2D6 is on record as “strong”. The “Enzymes inhibited … CYP3A4” value with CYP3A4 is “weak to moderate”. Further, the “Enzymes inhibited by antidepressant: CYP1A2” value with CYP1A2 is reported as “weak”.

Regarding `COc1cc(NC(C)CCCN)c2ncccc2c1` (stereo not drawn) [primaquine], the “pharmacokinetics of parent primaquine upon co-administration with fluoxetine” value in data set [6] is given as “not drastically altered”. The “blood stage parasitaemia status throughout the 31-day experiment” value in data set [4] (flow cytometry, P. berghei infected mice) was “parasitaemia-free”. Besides, in data set [7], the “primaquine metabolism signal in hepatocytes” value was ~ 40%. Besides, the “primaquine metabolism signal by CYP 2D6” value in data set [8] is reported as over 80%.

Take `NCCC(Oc1ccc(C(F)(F)F)cc1)c1ccccc1` (stereo not drawn) [nor-fluoxetine]: the elimination half-life result in data set [5] (in vivo) is recorded as “long”. For the same compound, the “CYP 2D6 inhibition by major metabolite of fluoxetine” value in the data set with CYP2D6 (no reference given) was “potent CYP 2D6 inhibitor”.

For `Fc1ccc([C@@H]2CCNC[C@H]2COc2ccc3c(c2)OCO3)cc1` [paroxetine], the “Enzymes inhibited … CYP2C9” value in the data set with CYP2C9 is “CYP2D6 (strong), CYP1A2 (weak), CYP2C9 (weak), CYP2C19 (weak), CYP3A4 (weak)”. Moreover, the “Enzymes inhibited by antidepressant: CYP2C19” value in the data set with CYP2C19 is on record as “CYP2D6 (strong), CYP1A2 (weak), CYP2C9 (weak), CYP2C19 (weak), CYP3A4 (weak)”. Further, in data set [2], the “Enzymes involved in biotransformation” value is “CYP2D6 and CYP3A4”. For the same compound, in the data set with CYP2D6, the “Enzymes inhibited … CYP2D6” value is “CYP2D6 (strong), CYP1A2 (weak), CYP2C9 (weak), CYP2C19 (weak), CYP3A4 (weak)”. Also, in the data set on CYP3A4, the “Enzymes inhibited … CYP3A4” value was “CYP2D6 (strong), CYP1A2 (weak), CYP2C9 (weak), CYP2C19 (weak), CYP3A4 (weak)”. Moreover, the “Enzymes inhibited by antidepressant: CYP1A2” value with CYP1A2 is recorded as “CYP2D6 (strong), CYP1A2 (weak), CYP2C9 (weak), CYP2C19 (weak), CYP3A4 (weak)”.

As for `COc1ccc(C(CN(C)C)C2(O)CCCCC2)cc1` (stereo not drawn) [venlafaxine], the IC50 in data set [1] was determined as 19.1 µM. Besides, the “inhibition of primaquine metabolism in hepatocytes” value in data set [9] is listed as “no inhibition of primaquine metabolism”. Moreover, the “Enzymes inhibited … CYP2D6” value with CYP2D6 is on record as “CYP2D6 (weak)”.
